Converted amounts (≈) assume the structure as drawn.
Columns and labels:
Candida albicans 3669 = test: Antifungal plate test, inhibition of Candida albicans 3669; type: cell-based; settings: strain 3669; for MIC: Candida albicans, read-out: MIC to inhibit growth
Procedure: (§1) The following represents the typical procedure used. Compound to be tested was placed on sterile dried 1/4" plate disks, and allowed to dry. Agar plates were seeded with fungi and allowed to solidify. The impregnated disks were placed on the seeded Agar surface and incubated for the time required for the particular culture. Results are expressed in MIC (μg/ml) to inhibit growth.

[1] = test system: Candida albicans ATCC 10231; test: Antifungal plate test, inhibition of Candida albicans ATCC 10231; type: cell-based; settings: for MIC: Candida albicans, ATCC10231, read-out: MIC to inhibit growth
Procedure: as §1

[2] = test system: Candida albicans ATCC 38246; test: Antifungal plate test, inhibition of Candida albicans ATCC 38246; type: cell-based; settings: for MIC: Candida albicans, ATCC38246, read-out: MIC to inhibit growth
Procedure: as §1

[3] = test system: Candida albicans ATCC 38248; test: Antifungal plate test, inhibition of Candida albicans ATCC 38248; type: cell-based; settings: for MIC: Candida albicans, ATCC38248, read-out: MIC to inhibit growth
Procedure: as §1

[4] = test system: Candida albicans ATCC 38247; test: Antifungal plate test, inhibition of Candida albicans ATCC 38247; type: cell-based; settings: for MIC: Candida albicans, ATCC38247, read-out: MIC to inhibit growth
Procedure: as §1

[5] = test system: cells from the thymus of normal BALB/c mice; test: Comitogen-induced thymocyte proliferation procedure (LAF); type: cell-based; settings: in vitro, rapamycin 1.0, 72 hours culture with PHA and IL-1
Procedure: (§2) Immunosuppressive activity was evaluated in an in vitro standard pharmacological test procedure to measure lymphocyte proliferation (LAF) and in two in vivo standard pharmacological test procedures. The first in vivo procedure was a popliteal lymph node (PLN) test procedure which measured the effect of compounds of this invention on a mixed lymphocyte reaction and the second in vivo procedure evaluated the survival time of a pinch skin graft.
Briefly, cells from the thymus of normal BALB/c mice are cultured for 72 hours with PHA and IL-1 and pulsed with tritiated thymidine during the last six hours. […] Cells are harvested and incorporated; radioactivity is determined. Inhibition of lymphoproliferation is assessed in percent change in counts per minute from non-drug treated controls. The results are expressed by the following ratio: [formula]

[6] = test system: pinch skin graft from male DBA/2 donors; test: Survival time of pinch skin graft; type: in vivo, male BALB/c mice (recipients); settings: intraperitoneally; mean ± S.D.
Procedure: as §2
The second in vivo test procedure is designed to determine the survival time of pinch skin graft from male DBA/2 donors transplanted to male BALB/c recipients. The method is adapted from Billingham R. E. and Medawar P. B., J. Exp. Biol. 28:385-402, (1951). Briefly, a pinch skin graft from the donor is grafted on the dorsum of the recipient as a homograft, and an autograft is used as control in the same region. […] Untreated recipients serve as rejection control. The graft is monitored daily and observations are recorded until the graft becomes dry and forms a blackened scab. This is considered as the rejection day. The mean graft survival time (number of days±S.D.) of the drug treatment group is compared with the control group.

transplant rejection = settings: cited from earlier work
[7] = alone or in combination with picibanil; cited from earlier work
multiple sclerosis = settings: in vivo; cited from earlier work
IgE-like antibodies = settings: in vivo; cited from earlier work
[8] = test system: mixed lymphocyte reaction in popliteal lymph node; test: In vivo popliteal lymph node (PLN) test procedure; design: species or system C3H mice (BALB/c donors); settings: for PLN Assay (ratio): in vivo, rapamycin 1.0, p.o. daily Day 0 to Day 4
Procedure: as §2
A mixed lymphocyte reaction (MLR) occurs when lymphoid cells from genetically distinct animals are combined in tissue culture. Each stimulates the other to undergo blast transformation which results in increased DNA synthesis that can be quantified by the incorporation of tritiated thymidine. Since stimulating a MLR is a function of disparity at Major Histocompatibility antigens, an in vivo popliteal lymph node (PLN) test procedure closely correlates to host vs. graft disease. Briefly, irradiated spleen cells from BALB/c donors are injected into the right hind foot pad of recipient C3H mice. The drug is given daily, p.o. from Day 0 to Day 4. On Day 3 and Day 4, tritiated thymidine is given i.p., b.i.d. On Day 5, the hind popliteal lymph nodes are removed and dissolved, and radioactivity counted. The corresponding left PLN serves as the control for the PLN from the injected hind foot. Percent suppression is calculated using the non-drug treated animals as allogenic control. […] Results are expressed by the following ratio: [formula]

Candida albicans = settings: in vitro and in vivo; cited from earlier work

| Molecule | MIC to inhibit growth (Candida albicans 3669) | MIC to inhibit growth [1] | MIC to inhibit growth [2] | MIC to inhibit growth [3] | MIC to inhibit growth [4] | LAF Assay (ratio) [5] | Skin Graft Assay (days + SD), mean graft survival time [6] | inhibition of transplant rejection / immunosuppressive effect (transplant rejection) | antitumor activity [7] | MIC (Candida albicans 3669) | effect in experimental allergic encephalomyelitis model (multiple sclerosis) | inhibition of formation of IgE-like antibodies (IgE-like antibodies) | MIC [1] | MIC [2] | MIC [3] | MIC [4] | Percent suppression (PLN) ([8]; 6 mg/kg, p.o.) | PLN Assay (ratio) [8] | antifungal activity (Candida albicans) |
| --- | --- | --- | --- | --- | --- | --- | --- | --- | --- | --- | --- | --- | --- | --- | --- | --- | --- | --- | --- |
| 1,2,3,4-Tetrahydrorapamycin [Example 2] | 0.0125 µg/mL | 0.006 µg/mL | 0.05 µg/mL | 0.0125 µg/mL | 0.006 µg/mL | 0.036 | 7.0 ± 0.9 days |  |  |  |  |  |  |  |  |  |  |  |  |
| C=CC[C@@H]1/C=C(\C)C[C@H](C)C[C@H](OC)[C@H]2O[C@@](O)(C(=O)C(=O)N3CCCC[C@H]3C(=O)O[C@H](/C(C)=C/[C@@H]3CC[C@@H](O)[C@H](OC)C3)[C@H](C)[C@@H](O)CC1=O)[C@H](C)C[C@@H]2OC [FK-506] |  |  |  |  |  |  |  | effective as immunosuppressive agents |  |  |  |  |  |  |  |  |  |  |  |
| CO[C@H]1C[C@@H]2CC[C@@H](C)[C@@](O)(O2)C(=O)C(=O)N2CCCC[C@H]2C(=O)O[C@H]([C@H](C)C[C@@H]2CC[C@@H](O)[C@H](OC)C2)CC(=O)[C@H](C)/C=C(\C)[C@@H](O)[C@@H](OC)C(=O)[C@H](C)C[C@H](C)/C=C/C=C/C=C/1C [Rapamycin, rapamycin] |  |  |  |  |  |  | 12.0 ± 1.7 days | effective in inhibiting transplant rejection | antitumor activity | 0.025 µg/mL (≈ 0.0273 µM) | effective in the experimental allergic encephalomyelitis model | effectively inhibited the formation of IgE-like antibodies | 0.003 µg/mL (≈ 0.00328 µM) | 0.025 µg/mL (≈ 0.0273 µM) | 0.006 µg/mL (≈ 0.00656 µM) | 0.003 µg/mL (≈ 0.00328 µM) | 86% | 1.0 | antifungal activity, particularly against Candida albicans, both in vitro and in vivo |
| CO[C@H]1C[C@@H]2CC[C@@H](C)[C@@](O)(O2)C(=O)C(=O)N2CCCC[C@H]2C(=O)O[C@H]([C@H](C)C[C@@H]2CC[C@@H](O)[C@H](OC)C2)CC(=O)[C@H](C)/C=C(\C)[C@@H](O)[C@@H](OC)C(=O)[C@H](C)C[C@H](C)CC/C=C/C=C/1C [Example 1, 1,2-Dihydrorapamycin] |  |  |  |  |  |  | 7.3 ± 0.9 days |  |  | 0.2 µg/mL (≈ 0.218 µM) |  |  | 0.4 µg/mL (≈ 0.437 µM) | 0.2 µg/mL (≈ 0.218 µM) | 0.2 µg/mL (≈ 0.218 µM) | > 0.4 µg/mL |  | -1.67 |  |

Reference: patent US5023262A, “Hydrogenated rapamycin derivatives” (American Home Products Corporation, priority 1990, dated 1991)
